Measured values from publication PMC2346451 (PLoS ONE, 2008).

Legend:
[1] = in humans; cited from earlier work
[2] = system: chicken rat TRPV1 chimera (crcTRPV1, CRC V2–V4); experiment: Whole-cell patch clamp of chicken rat TRPV1 chimera in HEK-293T cells; format: cell-based; conditions: n = 6
Description: (§1) Transformed human embryonic kidney-293 (HEK-293T) cells were grown in Dulbecco's modified Eagle's medium (DMEM)+F-12 supplemented with 10% fetal calf serum, and 1% penicillin/streptomycin in 5% CO2 at 37°C. Cells grown to 90% confluence in 35 mm Petri dishes were transiently transfected with plasmid DNA encoding a TRP channel construct (1 µg). Rat TRPV1 (rTRPV1) was cloned into an enhanced green fluorescent protein-containing vector (pTracer-CMV2; Invitrogen, Carlsbad, CA). Chicken TRPV1 (cTRPV1), the chicken rat TRPV1 chimera (crcTRPV1), rat TRPV2 (rTRPV2), mouse TRPV3 (mTRPV3), mouse TRPV4 (mTRPV4), rat TRPM8 (rTRPM8), and rat TRPA1 (rTRPA1), were cloned into pcDNA3 and co-transfected with enhanced green fluorescent protein (0.1 µg) to follow expression. The cTRPV1 and crcTRPV1 clones were kindly provided by Dr. David Julius. Recordings were carried out 24–36 hours after transfection. Cells were split via trypsin EDTA, plated on glass coverslips at 5–10% confluence, and used 2–3 hours later.
(§2) Electrophysiological experiments were performed using the whole-cell patch-clamp technique at room temperature. […]
(§3) Recordings were obtained using an Axopatch 200B amplifier, Digidata 1322A analog-to-digital converter, and pClamp 8.01 software (Molecular Devices, Union City, CA). […] Cell capacitance was measured for each cell, and access resistance compensated to ∼80%. […]

rat TRPV2 (rTRPV2) = target: T1, rat TRPV2 (rTRPV2) (Rattus norvegicus, UniProt Q9WUD2); experiment: Whole-cell patch clamp of rat TRPV2 expressed in HEK-293T cells; format: cell-based; parameters: key to Agonist efficacy: Ø - not activated; conditions: for Increase of agonist-evoked current prior to onset of inhibition: citral 1 mM, n = 10
T1 construct: expressed in transfected cells; host or cells: HEK-293T
T1 sequence (Q9WUD2 1-761): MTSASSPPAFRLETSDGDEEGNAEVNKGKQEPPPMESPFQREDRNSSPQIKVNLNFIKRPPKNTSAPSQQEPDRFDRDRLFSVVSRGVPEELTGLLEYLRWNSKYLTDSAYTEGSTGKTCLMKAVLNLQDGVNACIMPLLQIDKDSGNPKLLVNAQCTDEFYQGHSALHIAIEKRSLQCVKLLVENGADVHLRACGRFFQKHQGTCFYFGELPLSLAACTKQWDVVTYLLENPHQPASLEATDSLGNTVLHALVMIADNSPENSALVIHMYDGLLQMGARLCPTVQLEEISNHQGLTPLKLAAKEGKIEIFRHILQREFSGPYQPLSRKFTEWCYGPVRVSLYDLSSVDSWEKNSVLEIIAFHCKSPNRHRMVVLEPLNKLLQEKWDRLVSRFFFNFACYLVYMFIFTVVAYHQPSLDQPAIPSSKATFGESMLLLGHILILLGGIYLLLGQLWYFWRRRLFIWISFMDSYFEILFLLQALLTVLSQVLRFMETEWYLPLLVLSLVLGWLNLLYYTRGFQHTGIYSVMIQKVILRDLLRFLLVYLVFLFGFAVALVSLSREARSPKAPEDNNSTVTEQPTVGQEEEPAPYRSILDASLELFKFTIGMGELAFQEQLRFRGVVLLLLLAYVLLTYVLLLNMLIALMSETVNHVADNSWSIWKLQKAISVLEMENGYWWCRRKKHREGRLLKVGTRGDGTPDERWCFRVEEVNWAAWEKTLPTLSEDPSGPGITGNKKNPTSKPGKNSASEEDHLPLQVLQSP
Description: as §1
(§4) Electrophysiological experiments were performed using the whole-cell patch-clamp technique at room temperature. Modified Ringer's solution with low chloride and nominal calcium contained (in mM): 130 sodium hydroxide, 5 potassium chloride, 1 magnesium chloride, 10 sodium 4-(2-hydroxyethyl)-1-piperazineethanesulfonic acid, 10 2-(N-morpholino)ethanesulfonic acid, and 20 glucose (pH 7.4; 310 milli-osmolar). […] 2 mM calcium chloride was included in the external solution where noted. To activate TRPV1, the modified Ringer's solution was made at pH 5 (low pH solution) and the chloride concentration was kept to a minimum to prevent contamination of the TRPV1 currents with acid-activated chloride currents. For recordings from heterologously expressing cells, the internal pipette solution contained (in mM): 125 cesium-Methanesulfonate, 10 cesium (1.2-bis(o-aminophenoxy)ethane-N,N,N',N'-tetraacetic acid, 8 sodium chloride, 4 magnesium adenosine triphosphate, and 10 HEPES (pH 7.2; 290 mOSM; nominal free calcium concentrations). For TRPA1 and dorsal root ganglion recordings, the internal pipette solution contained (in mM): 110 cesium-Methanesulfonate, 0.5 cesium4BAPTA, 8 sodium chloride, 0.2 calcium chloride, 4 magnesium-ATP, 4 sodium-GTP, and 10 4-(2-hydroxyethyl)-1-piperazineethanesulfonic acid (pH 7.2; 290 mOSM; 100 nM free calcium internal). MaxChelator was used to calculate the free calcium concentration (http://www.stanford.edu/cpatton/maxc.html).
(§5) Recordings were obtained using an Axopatch 200B amplifier, Digidata 1322A analog-to-digital converter, and pClamp 8.01 software (Molecular Devices, Union City, CA). Data were low-pass filtered at 2 kHz and digitized at 5 kHz. Borosilicate glass pipettes (World Precision Instruments, Sarasota, FL) were typically 3 MΩ pipette resistance after fire polishing. Cell capacitance was measured for each cell, and access resistance compensated to ∼80%. Recordings were begun ∼5 minutes after initial rupture to ensure initial steady state conditions. Current-voltage (I-V) relations were obtained using a ramp protocol. Voltage ramps (400 ms) from −100 to +40 or +100 mV were applied every 1–2 seconds and the holding potential was either −70 mV or 0 mV (see Figure Legends). A 40 ms step was added at the beginning and end of the ramp (i.e. at −100 mV, +40 mV or +100 mV). Liquid junction potentials were not corrected.
(§6) The dose response curves were fit with the Hill equation, where [drawing 8] and [A] is the concentration of agonist or blocker, N is the Hill coefficient, and KD is the [A] for Imeasured/Imax = 0.5. The term apparent dissociation constant is used in place of the half concentration of excitation and inhibition. […] Averaged data are presented as mean±standard error (S.E.) throughout. Statistical analysis included paired and unpaired Student's t-test comparisons of the data; p values are reported in the text.

[3] = target: T2, rat TRPV1 tyrosine to alanine point mutant at residue 511 (Rattus norvegicus, UniProt O35433, Y511A); experiment: Patch clamp of capsaicin-insensitive rat TRPV1 point mutant; format: cell-based; conditions: data not shown
T2 construct: expressed in transfected cells; host or cells: HEK-293T (inferred from the general methods)

rat TRPA1 (rTRPA1) = rat TRPA1 (rTRPA1) (Rattus norvegicus, UniProt Q6RI86); experiment: Whole-cell patch clamp of rat TRPA1 expressed in HEK-293T cells; format: cell-based
Description: as §1, §4, §5, §6

Chicken TRPV1 (cTRPV1) = experiment: Whole-cell patch clamp of chicken TRPV1 expressed in HEK-293T cells; format: cell-based
Description: as §1, §2, §3

Sequence of rat TRPA1 (rTRPA1) (Q6RI86 whole entry): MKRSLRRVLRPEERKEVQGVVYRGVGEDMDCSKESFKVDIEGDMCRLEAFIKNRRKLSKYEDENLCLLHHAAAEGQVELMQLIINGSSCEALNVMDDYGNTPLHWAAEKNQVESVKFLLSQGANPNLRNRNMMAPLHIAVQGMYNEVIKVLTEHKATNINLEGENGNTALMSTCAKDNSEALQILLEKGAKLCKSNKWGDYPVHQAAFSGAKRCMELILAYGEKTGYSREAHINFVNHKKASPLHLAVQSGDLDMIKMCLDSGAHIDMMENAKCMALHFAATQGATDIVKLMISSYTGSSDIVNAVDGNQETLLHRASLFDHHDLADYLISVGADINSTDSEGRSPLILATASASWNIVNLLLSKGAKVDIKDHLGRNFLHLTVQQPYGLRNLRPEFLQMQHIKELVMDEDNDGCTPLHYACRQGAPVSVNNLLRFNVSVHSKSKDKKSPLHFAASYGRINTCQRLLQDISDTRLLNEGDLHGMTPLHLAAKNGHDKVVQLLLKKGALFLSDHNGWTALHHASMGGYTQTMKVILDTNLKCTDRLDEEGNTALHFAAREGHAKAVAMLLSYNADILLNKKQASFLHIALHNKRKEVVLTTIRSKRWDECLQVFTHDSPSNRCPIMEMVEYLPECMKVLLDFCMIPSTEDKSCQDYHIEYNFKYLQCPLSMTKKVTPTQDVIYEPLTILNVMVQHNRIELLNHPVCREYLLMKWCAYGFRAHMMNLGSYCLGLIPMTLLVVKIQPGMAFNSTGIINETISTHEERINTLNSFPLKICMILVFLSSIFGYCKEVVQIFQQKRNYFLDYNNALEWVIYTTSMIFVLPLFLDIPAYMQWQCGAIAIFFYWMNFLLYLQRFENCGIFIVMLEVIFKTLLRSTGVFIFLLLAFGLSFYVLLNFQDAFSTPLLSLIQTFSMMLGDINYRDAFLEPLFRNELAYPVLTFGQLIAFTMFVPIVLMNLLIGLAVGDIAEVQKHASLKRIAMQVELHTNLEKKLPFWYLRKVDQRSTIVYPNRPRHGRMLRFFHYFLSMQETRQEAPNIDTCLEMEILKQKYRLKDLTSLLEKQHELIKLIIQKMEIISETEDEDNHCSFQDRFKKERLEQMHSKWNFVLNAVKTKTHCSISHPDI
T2 sequence (O35433 whole entry Y511A): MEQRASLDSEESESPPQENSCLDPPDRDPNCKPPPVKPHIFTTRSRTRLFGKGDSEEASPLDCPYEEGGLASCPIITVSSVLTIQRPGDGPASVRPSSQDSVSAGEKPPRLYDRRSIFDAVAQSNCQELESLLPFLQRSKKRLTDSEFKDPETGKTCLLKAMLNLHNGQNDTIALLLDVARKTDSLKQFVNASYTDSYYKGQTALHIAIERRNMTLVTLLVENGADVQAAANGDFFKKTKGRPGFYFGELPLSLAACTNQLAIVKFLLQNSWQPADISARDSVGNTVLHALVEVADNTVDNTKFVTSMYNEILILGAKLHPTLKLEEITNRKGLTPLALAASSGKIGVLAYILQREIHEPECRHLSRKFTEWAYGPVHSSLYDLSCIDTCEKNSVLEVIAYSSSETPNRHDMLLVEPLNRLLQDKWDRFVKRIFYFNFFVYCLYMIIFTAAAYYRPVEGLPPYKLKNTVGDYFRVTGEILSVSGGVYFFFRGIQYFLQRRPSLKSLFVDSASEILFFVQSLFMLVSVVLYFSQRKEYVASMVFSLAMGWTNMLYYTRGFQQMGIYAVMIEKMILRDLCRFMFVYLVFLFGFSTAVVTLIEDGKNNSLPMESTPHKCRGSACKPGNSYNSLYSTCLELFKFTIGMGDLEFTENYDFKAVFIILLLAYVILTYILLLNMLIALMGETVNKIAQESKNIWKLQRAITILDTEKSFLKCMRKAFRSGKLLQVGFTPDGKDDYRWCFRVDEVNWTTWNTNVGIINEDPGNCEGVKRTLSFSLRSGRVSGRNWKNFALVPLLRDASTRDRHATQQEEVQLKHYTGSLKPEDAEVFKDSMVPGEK

CC(C)=CCCC(C)=CC=O [citral, 3,7-dimethyl-2,6-octadienal]
Concentration at which therapeutic effects have been attributed [1]: 1 to 100 µM
Activation of CRC V2–V4 chimera currents [2]: restored citral activation
Agonist efficacy (rat TRPV2 (rTRPV2)): Ø
Reversibility of citral inhibition of agonist-evoked current (rat TRPV2 (rTRPV2)): essentially irreversible
Increase of agonist-evoked current prior to onset of inhibition (rat TRPV2 (rTRPV2); +100 mV): 2.2±0.2 fold
Increase of agonist-evoked current prior to onset of inhibition (rat TRPV2 (rTRPV2); −100 mV): 2.5±0.4 fold
Hill coefficient (inhibition) (rat TRPV2 (rTRPV2); citral block of 2-aminoethyldiphenyl borate-evoked current): 2.4
Kd (rat TRPV2 (rTRPV2); read-out: Inhibition KD, app): 534 µM
Response of capsaicin-insensitive TRPV1 point mutant [3]: remained responsive to citral
Reversibility of citral inhibition of agonist-evoked current (rat TRPA1 (rTRPA1); allyl isothiocyanate-evoked): rapidly reversed
Effect of citral addition on agonist-induced current (rat TRPA1 (rTRPA1); allyl isothiocyanate-induced, n = 10): not increased
TRPA1 current activation by allyl isothiocyanate recovered after citral washout (rat TRPA1 (rTRPA1); at 30s, n = 5): 60±16%
Activation threshold (rat TRPA1 (rTRPA1); citral activation, bell-shaped dose response, 2 mM external calcium): threshold ∼200 µM
Hill coefficient (inhibition) (rat TRPA1 (rTRPA1); citral block of allyl isothiocyanate-evoked current): 1.0
Agonist efficacy IAITC (300 µM)/Icitral (300 µM) (rat TRPA1 (rTRPA1); fold larger, −100 mV, n = 27 and 9): IAITC (300 µM)/Icitral (300 µM) 1.5 fold larger (n = 27 and 9; −100 mV)
Kd (rat TRPA1 (rTRPA1); read-out: Inhibition KD, app): 254 µM
Increase of ITRPA1 above baseline (rat TRPA1 (rTRPA1); −100 mV): 3.1±0.8 fold
Activation of cTRPV1 current (Chicken TRPV1 (cTRPV1); n = 6): did not activate
Effect on cTRPV1 currents activated by pH 5 solution (Chicken TRPV1 (cTRPV1); pH 5): reversibly inhibited
